Where two headings read alike, the source gives them in different places.
Legend:
[1] = test system: Key Broadleaf Weed and Crop Species; test: Post-Emergent Test II: postemergent herbicidal activity, visual rating after 14 d (Table 7); format: in vivo; details: post-emergence, 336 h; for pest or weed control at 35 g/ha: 35 g ai/ha; for pest or weed control at 70 g/ha: 70 g ai/ha; for pest or weed control at 140 g/ha: 140 g ai/ha
How it was run: (§1)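 Visual scoring at 14 d, 0 (no injury) to 100 (complete kill), relative to untreated plants. Postemergent overhead track-sprayer application, 187 L/ha, at a top rate plus serial ½×–1/16× rates, to plants grown 7–21 d at about 23–29° C day under a 15 h photoperiod, then subirrigated.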

[2] = test system: Key Grass and Sedge Weeds as well as Grass Crops; test: Post-Emergent Test II: postemergent herbicidal activity, visual rating after 14 d (Table 8); format: in vivo; details: post-emergence, 336 h; for pest or weed control at 35 g/ha: 35 g ai/ha; for pest or weed control at 70 g/ha: 70 g ai/ha; for pest or weed control at 140 g/ha: 140 g ai/ha
How it was run: as §1

[3] = lambsquarters (Chenopodium album), read-out: Visual Growth Reduction (%) 14 Days After Application CHEAL
[4] = oilseed rape, canola (Brassica napus), read-out: Visual Growth Reduction (%) 14 Days After Application BRSNN
[5] = redroot pigweed (Amaranthus retroflexus), read-out: Visual Growth Reduction (%) 14 Days After Application AMARE
[6] = sunflower (Helianthus annuus), read-out: Visual Growth Reduction (%) 14 Days After Application HELAN
[7] = velvetleaf (Abutilon theophrasti), read-out: Visual Growth Reduction (%) 14 Days After Application ABUTH
[8] = wild poinsettia (Euphorbia heterophylla), read-out: Visual Growth Reduction (%) 14 Days After Application EPHHL
[9] = barnyardgrass (Echinochloa crus-galli), read-out: Visual Growth Reduction (%) 14 Days After Application ECHCG
[10] = giant foxtail (Setaria faberi), read-out: Visual Growth Reduction (%) 14 Days After Application SETFA
[11] = maize, corn (Zea mays), read-out: Visual Growth Reduction (%) 14 Days After Application ZEAMX
[12] = rice (Oryza sativa), read-out: Visual Growth Reduction (%) 14 Days After Application ORYSA
[13] = wheat, spring (Triticum aestivum), read-out: Visual Growth Reduction (%) 14 Days After Application TRZAS
[14] = yellow nutsedge (Cyperus esculentus), read-out: Visual Growth Reduction (%) 14 Days After Application CYPES

Row | SMILES | pest or weed control at 35 g/ha [1, 3] [%] | pest or weed control at 70 g/ha [1, 3] [%] | pest or weed control at 140 g/ha [1, 3] [%] | pest or weed control at 35 g/ha [1, 4] [%] | pest or weed control at 70 g/ha [1, 4] [%] | pest or weed control at 140 g/ha [1, 4] [%] | pest or weed control at 35 g/ha [1, 5] [%] | pest or weed control at 70 g/ha [1, 5] [%] | pest or weed control at 140 g/ha [1, 5] [%] | pest or weed control at 35 g/ha [1, 6] [%] | pest or weed control at 70 g/ha [1, 6] [%] | pest or weed control at 140 g/ha [1, 6] [%] | pest or weed control at 35 g/ha [1, 7] [%] | pest or weed control at 70 g/ha [1, 7] [%] | pest or weed control at 140 g/ha [1, 7] [%] | pest or weed control at 35 g/ha [1, 8] [%] | pest or weed control at 70 g/ha [1, 8] [%] | pest or weed control at 140 g/ha [1, 8] [%] | pest or weed control at 35 g/ha [2, 9] [%] | pest or weed control at 70 g/ha [2, 9] [%] | further results
1 | COC(=O)c1nc(-c2cc3c(cc2F)OCO3)c(F)c(N)c1Cl [Compound 16] | 45 to 59 | 60 to 74 | 60 to 74 | 30 to 44 | 60 to 74 | 85 to 94 | 85 to 94 | 85 to 94 | 95 to 100 | 85 to 94 | 95 to 100 | 95 to 100 | 60 to 74 | 60 to 74 | 75 to 84 | 95 to 100 | 95 to 100 | 95 to 100 | 60 to 74 | 60 to 74 | pest or weed control at 140 g/ha [2, 9]: 75 to 84%; pest or weed control at 35 g/ha [2, 10]: 60 to 74%; pest or weed control at 70 g/ha [2, 10]: 60 to 74%; pest or weed control at 140 g/ha [2, 10]: 60 to 74%; pest or weed control at 35 g/ha [2, 11]: 30 to 44%; pest or weed control at 70 g/ha [2, 11]: 45 to 59%; pest or weed control at 140 g/ha [2, 11]: 75 to 84%; pest or weed control at 35 g/ha [2, 12]: 0 to 29%; pest or weed control at 70 g/ha [2, 12]: 0 to 29%; pest or weed control at 140 g/ha [2, 12]: 0 to 29%; pest or weed control at 35 g/ha [2, 13]: 0 to 29%; pest or weed control at 70 g/ha [2, 13]: 30 to 44%; pest or weed control at 140 g/ha [2, 13]: 45 to 59%; pest or weed control at 35 g/ha [2, 14]: 0 to 29%; pest or weed control at 70 g/ha [2, 14]: 45 to 59%; pest or weed control at 140 g/ha [2, 14]: 45 to 59%
2 | COc1c(C(=O)O)nc(-c2ccc3c(c2)OC(F)(F)O3)c(F)c1N [Compound 25] | 0 to 29 | 0 to 29 | 45 to 59 | 75 to 84 | 95 to 100 | 95 to 100 | 0 to 29 | 0 to 29 | 0 to 29 | 0 to 29 | 0 to 29 | 0 to 29 | 45 to 59 | 60 to 74 | 75 to 84 | 95 to 100 | 95 to 100 | 95 to 100 | 85 to 94 | 85 to 94 | pest or weed control at 140 g/ha [2, 9]: 95 to 100%; pest or weed control at 35 g/ha [2, 10]: 45 to 59%; pest or weed control at 70 g/ha [2, 10]: 60 to 74%; pest or weed control at 140 g/ha [2, 10]: 60 to 74%; pest or weed control at 35 g/ha [2, 11]: 60 to 74%; pest or weed control at 70 g/ha [2, 11]: 75 to 84%; pest or weed control at 140 g/ha [2, 11]: 75 to 84%; pest or weed control at 35 g/ha [2, 12]: 0 to 29%; pest or weed control at 70 g/ha [2, 12]: 30 to 44%; pest or weed control at 140 g/ha [2, 12]: 60 to 74%; pest or weed control at 35 g/ha [2, 13]: 45 to 59%; pest or weed control at 70 g/ha [2, 13]: 45 to 59%; pest or weed control at 140 g/ha [2, 13]: 60 to 74%; pest or weed control at 35 g/ha [2, 14]: 95 to 100%; pest or weed control at 70 g/ha [2, 14]: 95 to 100%; pest or weed control at 140 g/ha [2, 14]: 95 to 100%

Source: US9149038B2, “4-amino-6-(heterocyclic)picolinates and 6-amino-2-(heterocyclic)pyrimidine-4-carboxylates and their use as herbicides” (Dow AgroSciences LLC, priority 2013, dated 2015)
